These results are taken from patent publication US5914338A, “Heterocyclic compounds and their preparation and use” (Novo Nordisk, priority 1996, dated 1999).

Counter-ions that a name gives are not always drawn. Like-named read-outs stand apart in the source and are kept apart here.

Assay [1] addresses muscarinic acetylcholine receptors. Nature of the assay: inhibition of specific binding of ^3 H-Oxotremorine-M (^3 H-Oxo), fresh rat cortex. Further details: species or system rat (male Wistar). Particulars: ^3 H-Oxotremorine 1.0 nM, 30 min at 25° C, pH 7.4. An excerpt:
The pharmacological properties of the compounds of the invention can be illustrated by determining their capability to inhibit the specific binding of ^3 H-Oxotremorine-M (^3 H-Oxo). Birdsdall N. J. M., Hulme E. C., and Burgen A. S. V. (1980). "The Character of Muscarinic Receptors in Different Regions of the Rat Brain". Proc. Roy. Soc. London (Series B) 207,1.
^3 H-Oxo labels muscarinic receptor in the CNS (with a preference for agonist domains of the receptors). Three different sites are labelled by ^3 H-Oxo. […] Using the present experimental conditions only the high and medium affinity sites are determined.
The inhibitory effects of compounds on ^3 H-Oxo binding reflects the affinity for muscarinic acetylcholine receptors.
All preparations are performed at 0-4° C. unless otherwise indicated. Fresh cortex (0.1-1 g) from male Wistar rats (150-250 g) is homogenized for 5-10 s in 10 ml 20 mM Hepes pH: 7.4, with an Ultra-Turrax homogenizer. The homogenizer is rinsed with 10 ml of buffer and the combined suspension centrifuged for 15 min. at 40,000×g. The pellet is washed three times with buffer. In each step the pellet is homogenized as before in 2×10 ml of buffer and centrifuged for 10 min. at 40,000×g.
The final pellet is homogenized in 20 mM Hepes pH: 7.4 (100 ml per g of original tissue) and used for binding assay. Aliquots of 0.5 ml is added 25 μl of test solution and 25 μl of ^3 H-Oxotremorine (1.0 nM, final concentration) mixed and incubated for 30 min. at 25° C. Non-specific is determined in triplicate using arecoline (1 μg/ml, final concentration) as the test substance. After incubation samples are added 5 ml of ice-cold buffer and poured directly onto Whatman GF/C glass fiber filters under suction and immediately washed 2 times with 5 ml of ice-cold buffer. The amount of radioactivity on the filters are determined by conventional liquid scintillation counting. Specific binding is total binding minus non specific binding.
Test substances are dissolved in 10 ml water (if necessary heated on a steambath for less than 5 min.) at a concentration of 2.2 mg/ml. 25-75% inhibition of specific binding must be obtained before calculation of IC50.
The test value will be given as IC50 (the concentration (nM) of the test substance which inhibits the specific binding of ^3 H-Oxo by 50%) .
(§1) IC50 =(applied test substance concentration) x(Cx /Co
(§2) where Co is specific binding in control assays and Cx is the specific binding in the test assay. (The calculations assume normal mass-action kinetics).

For assay [2], the target named is T1, subtype of muscarinic receptors (M1-site, pirenzepine sensitive site), rat cerebral cortex membranes (Rattus norvegicus, UniProt P08482).
T1 construct: Fresh cortex (0.1-1 g) from male Wistar rats (150-200 g) is homogenized; from tissue; host or cells: fresh cerebral cortex membranes of male Wistar rats
T1 sequence (P08482 1-460): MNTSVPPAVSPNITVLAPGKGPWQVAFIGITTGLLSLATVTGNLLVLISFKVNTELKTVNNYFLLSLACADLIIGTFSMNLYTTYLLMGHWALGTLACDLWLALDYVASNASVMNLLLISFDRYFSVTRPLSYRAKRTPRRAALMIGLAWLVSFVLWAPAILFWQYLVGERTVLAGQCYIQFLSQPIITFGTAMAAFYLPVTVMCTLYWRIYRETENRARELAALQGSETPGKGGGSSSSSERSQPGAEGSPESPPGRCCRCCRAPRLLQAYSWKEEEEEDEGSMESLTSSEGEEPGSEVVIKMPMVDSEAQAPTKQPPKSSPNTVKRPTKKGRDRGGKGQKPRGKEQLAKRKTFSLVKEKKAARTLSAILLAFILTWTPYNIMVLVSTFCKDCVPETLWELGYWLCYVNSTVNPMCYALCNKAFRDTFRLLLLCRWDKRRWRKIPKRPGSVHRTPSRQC
Nature of the assay: inhibition of ^3 H-PRZ (pirenzepine, [N-methyl-^3 H]) binding to rat cerebral cortex membranes. Details: species or system rat (male Wistar). The method, then:
Furthermore, the pharmacological properties of the compounds of the invention can also be illustrated by determining their capability to inhibit ^3 H-PRZ (pirenzepine, [N-methyl-^3 H]) binding to rat cerebral cortex membranes. Pirenzepine binds selectively to subtype of muscarinic receptors. Historically the type is named the M1 -site, whereas pirenzepine sensitive site would be more appropriate.
All preparations are performed at 0-4° C. unless otherwise indicated. Fresh cortex (0.1-1 g) from male Wistar rats (150-200 g) is homogenized for 5-10 s. in 10 ml 20 mM Hepes pH: 7.4, with an Ultra-Turraxhomogenizer. The homogenizer is rinsed with 2×10 ml of buffer and the combined suspension centrifuged for 15 min at 40,000×g. The pellet is washed three times with buffer. In each step the pellet is homogenized as before in 3×10 ml of buffer and centrifuged for 10 min at 40,000×g.
The final pellet is homogenized in 20 mM Hepes pH: 7.4 (100 ml per g of original tissue) and used for binding assay. Aliquots of 0.5 ml is added 20 μl of test solution and 25 μl of ^3 H-Pirenzepine (1.0 nM, final conc.), mixed and incubated for 60 min at 20° C. Non-specificbinding is determined in triplicate using atropine (1 μg/ml, final conc.) as the test substance. After incubation samples are added 5 ml of ice-cold buffer and poured directly onto Whatman GF/C glass fibre filters under suction and immediately washed 2 times with 5 ml of ice-cold buffer. The amount of radioactivity on the filters are determined by conventional liquid scintillation counting. Specific binding is total binding minus non-specific binding.
Test substances are dissolved in 10 ml water, at a concentration of 0.22 mg/ml. 25-75% inhibition of specific binding must be obtained before calculation of IC50.
The test value will be given as IC50 (the concentration (nM) of the test substance which inhibits the specific binding of ^3 H-PRZ by 50%) .
as §1, §2

Assay [3] has as its target muscarinic receptor in the CNS. Particulars: read-out: affinity of site labelled by ^3 H-Oxo, cited from earlier work.
For the next assay, the system named is M2-sites. Particulars: cited from earlier work.
Another assay relates to M1-sites. Particulars: cited from earlier work.
Setting [4] is: ^3 H-Pirenzepine 1.0 nM, rat cortex, 60 min at 20° C, pH 7.4, read-out: ^3 H-PRZ IC50.

`CCCSc1nsnc1C12CN3CC1C2C3` [Compound 2, 1-(3-Propylthio-1,2,5-thiadiazol-4-yl)-4-azatricyclo[2.2.1.0^2,6]heptane, oxalate]: the values for the IC50 in assay [1] and in assay [2] were 4.3 nM and 100 nM, respectively.

Consider `FC(F)(F)CCSc1nsnc1C12CN3CC1C2C3` [Compound 3, 1-(3,3,3-Trifluoropropylthio-1,2,5-thiadiazol-4-yl)-4-azatricyclo[2.2.1.0^2,6]heptane, oxalate], for which the values for the IC50 in assay [1] and in assay [2] (setting [4]) were 14 nM and 245 nM, respectively.

As for `N#Cc1ccc(CSc2nsnc2C23CN4CC2C3C4)cc1` [Compound 4, 1-[3-(4-Cyanobenzylthio)-1,2,5-thiadiazol-4-yl]-4-azatricyclo[2.2.1.0^2,6]heptane, oxalate], the values for the IC50 in assay [1] and in assay [2] (setting [4]) were 41 nM and 500 nM, respectively.

On to `Fc1ccc(C#CCOc2nsnc2C23CN4CC2C3C4)cc1` [Compound 6, 1-(3-[3-(4-Fluorophenyl)-2-propynyl-1-oxy]-1,2,5-thiadiazol-4-yl)-4-azatricyclo[2.2.1.0^2,6]heptane, oxalate], for which the IC50 (in general, the concentration that inhibits the measured activity by half) in assay [1] was 17 nM; in assay [2] (setting [4]) it was 93 nM.

For the molecule `C(#Cc1ccccc1)COc1nsnc1C12CN3CC1C2C3` [Compound 7, 1-[3-(3-Phenyl-2-propynyl-1-oxy)-1,2,5-thiadiazol-4-yl]-4-azatricyclo[2.2.1.0^2,6]heptane, oxalate], the IC50 came out at 26 nM in assay [1] and 183 nM in assay [2] (setting [4]).

As for `C(#Cc1ccsc1)COc1nsnc1C12CN3CC1C2C3` [Compound 8, 1-(3-[3-(3-Thienyl)-2-propyn-1-yloxy]-1,2,5-thiadiazol-4-yl)-4-azatricyclo[2.2.1.0^2,6]heptane, oxalate], the IC50 came to 8.7 nM in assay [1] and 180 nM in assay [2] (setting [4]).

`C(#Cc1cccs1)COc1nsnc1C12CN3CC1C2C3` [Compound 9, 1-(3-[3-(2-Thienyl)-2-propyn-1-yloxy]-1,2,5-thiadiazol-4-yl)-4-azatricyclo[2.2.1.0^2,6]heptane, oxalate]: the values for the IC50 in assay [1] and in assay [2] (setting [4]) were 15 nM and 284 nM, respectively.

Take `COc1cccc(C#CCOc2nsnc2C23CN4CC2C3C4)c1` [Compound 10, 1-(3-[3-(3-Methoxyphenyl)-2-propyn-1-yloxy]-1,2,5-thiadiazol-4-yl)-4-azatricyclo[2.2.1.0^2,6]heptane, hydrochloride]: the IC50 in assay [1] amounted to 25 nM; in assay [2] (setting [4]), 326 nM.

In the case of `C(#Cc1cccnc1)COc1nsnc1C12CN3CC1C2C3` [Compound 11, 1-(3-[3-(3-Pyridyl)-2-propyn-1-yloxy]-1,2,5-thiadiazol-4-yl)-4-azatricyclo[2.2.1.0^2,6]heptane, oxalate], the IC50 in assay [1] turned out to be 6 nM; in assay [2] (setting [4]), 400 nM.

As for `C[N+](C)(C)CC#CCN1CCCC1=O` [^3 H-Oxo, ^3 H-Oxotremorine-M], the Kd in assay [3] (first (high affinity) site) was 1.8 nM; in assay [3] (second (medium affinity) site) it was 20 nM; in assay [3] (third site, not determined under the present conditions), 3000 nM.

For `CN1CCN(CC(=O)N2c3ccccc3C(=O)Nc3cccnc32)CC1` [pirenzepine], the “interaction with M2-sites” value with M2-sites is reported as “also interact with M2 -sites”. Besides, the “selectivity for M1-sites” value with M1-sites is “selective for M1 -sites”.
